Species: Rattus norvegicus
Experiment: DrugMatrix - Regimen: Daily Repeat
Type: toxicity, organism-based, Sprague-Dawley
Parameters: regimen Daily Repeat, gender Male, age 6-8 weeks
Conditions: in vivo, sc, route subcutaneous, […]; for ABSOLUTE BASOPHIL / ABSOLUTE EOSINOPHIL / ABSOLUTE LYMPHOCYTE / ABSOLUTE MONOCYTE / ABSOLUTE SEGMENTED NEUTROPHIL / BASOPHIL / EOSINOPHIL / ERYTHROCYTE COUNT / HEMATOCRIT / HEMOGLOBIN / LEUKOCYTE COUNT / LYMPHOCYTE / MEAN CORPUSCULAR HEMOGLOBIN / MEAN CORPUSCULAR HEMOGLOBIN CONCENTRATION / MEAN CORPUSCULAR VOLUME / MONOCYTE / NEUTROPHIL / NUCLEATED RED BLOOD CELLS / PLATELET COUNT: tissue Blood; for ALANINE AMINOTRANSFERASE / ALBUMIN / ALKALINE PHOSPHATASE / ASPARTATE AMINOTRANSFERASE / BLOOD UREA NITROGEN / CARBON DIOXIDE / CHLORIDE / CHOLESTEROL / CREATINE PHOSPHOKINASE / CREATININE / GLUCOSE / LACTATE DEHYDROGENASE / LIPASE / PHOSPHORUS / POTASSIUM / SODIUM / TOTAL BILIRUBIN / TOTAL PROTEIN / URIC ACID: tissue Plasma
[1] = 260 mg/kg, 72 h, dose level Low, time 3 day
[2] = 260 mg/kg, 120 h, dose level Low, time 5 day
[3] = 2600 mg/kg, 72 h, dose level High, time 3 day
[4] = 2600 mg/kg, 120 h, dose level High, time 5 day

`c1ccc2sc(SSc3nc4ccccc4s3)nc2c1` [BENZOTHIAZYL DISULFIDE] was tested, and the “ABSOLUTE BASOPHIL” value [1] was 0 CELLS/uL, the “ABSOLUTE EOSINOPHIL” value [1] was 108 CELLS/uL and the “ABSOLUTE LYMPHOCYTE” value [1] was 9435.33 CELLS/uL. For the same compound, the “ABSOLUTE MONOCYTE” value [1] was 328 CELLS/uL, the “ABSOLUTE SEGMENTED NEUTROPHIL” value [1] was 1062 CELLS/uL and the BASOPHIL [1] was 0%. For the same compound, the EOSINOPHIL [1] was 1%, the “ERYTHROCYTE COUNT” value [1] was 5.25 x10E6/uL and the HEMATOCRIT [1] was 33.03%. The HEMOGLOBIN [1] was 12.27 G/DL, the “LEUKOCYTE COUNT” value [1] was 10.93 x10E3/uL and the LYMPHOCYTE [1] was 86.33%. The “MEAN CORPUSCULAR HEMOGLOBIN” value [1] was 23.33 pg, the “MEAN CORPUSCULAR HEMOGLOBIN CONCENTRATION” value [1] was 37.13 G/DL and the “MEAN CORPUSCULAR VOLUME” value [1] was 62.87 fL. The MONOCYTE [1] was 3%, the NEUTROPHIL [1] was 9.67% and the “NUCLEATED RED BLOOD CELLS” value [1] was 0 /100WBC. For the same compound, the “PLATELET COUNT” value [1] was 1377.33 x10E3/uL, the “ALANINE AMINOTRANSFERASE” value [1] was 42 u/L and the ALBUMIN [1] was 3.87 G/DL. The “ALKALINE PHOSPHATASE” value [1] was 365.33 u/L, the “ASPARTATE AMINOTRANSFERASE” value [1] was 91.67 u/L and the “BLOOD UREA NITROGEN” value [1] was 16 mg/dL. For the same compound, the “CARBON DIOXIDE” value [1] was 26 mmol/L, the CHLORIDE [1] was 105.33 MEQ/L and the CHOLESTEROL [1] was 77.33 mg/dL. The “CREATINE PHOSPHOKINASE” value [1] was 411.33 u/L, the CREATININE [1] was 0.21 mg/dL and the GLUCOSE [1] was 149.33 mg/dL. The “LACTATE DEHYDROGENASE” value [1] was 600.33 u/L, the LIPASE [1] was 8.67 u/L and the PHOSPHORUS [1] was 12.73 mg/dL. For the same compound, the POTASSIUM [1] was 6.51 MEQ/L, the SODIUM [1] was 145.03 MEQ/L and the “TOTAL BILIRUBIN” value [1] was 0.17 mg/dL. The “TOTAL PROTEIN” value [1] was 5.4 G/DL, the “URIC ACID” value [1] was 1.47 mg/dL and the “ABSOLUTE BASOPHIL” value [2] was 0 CELLS/uL. The “ABSOLUTE EOSINOPHIL” value [2] was 214.33 CELLS/uL, the “ABSOLUTE LYMPHOCYTE” value [2] was 15055 CELLS/uL and the “ABSOLUTE MONOCYTE” value [2] was 283.33 CELLS/uL. For the same compound, the “ABSOLUTE SEGMENTED NEUTROPHIL” value [2] was 1280.67 CELLS/uL, the BASOPHIL [2] was 0% and the EOSINOPHIL [2] was 1.33%. For the same compound, the “ERYTHROCYTE COUNT” value [2] was 5.49 x10E6/uL, the HEMATOCRIT [2] was 34.87% and the HEMOGLOBIN [2] was 13.17 G/DL. The “LEUKOCYTE COUNT” value [2] was 16.83 x10E3/uL, the LYMPHOCYTE [2] was 89.33% and the “MEAN CORPUSCULAR HEMOGLOBIN” value [2] was 24.1 pg. The “MEAN CORPUSCULAR HEMOGLOBIN CONCENTRATION” value [2] was 37.8 G/DL, the “MEAN CORPUSCULAR VOLUME” value [2] was 63.7 fL and the MONOCYTE [2] was 1.67%. For the same compound, the NEUTROPHIL [2] was 7.67%, the “NUCLEATED RED BLOOD CELLS” value [2] was 0.67 /100WBC and the “PLATELET COUNT” value [2] was 1489.67 x10E3/uL. The “ALANINE AMINOTRANSFERASE” value [2] was 39 u/L, the ALBUMIN [2] was 3.93 G/DL and the “ALKALINE PHOSPHATASE” value [2] was 463.33 u/L. For the same compound, the “ASPARTATE AMINOTRANSFERASE” value [2] was 92.67 u/L, the “BLOOD UREA NITROGEN” value [2] was 18.33 mg/dL and the “CARBON DIOXIDE” value [2] was 28.33 mmol/L. For the same compound, the CHLORIDE [2] was 105.33 MEQ/L, the CHOLESTEROL [2] was 70.67 mg/dL and the “CREATINE PHOSPHOKINASE” value [2] was 529 u/L. The CREATININE [2] was 0.19 mg/dL, the GLUCOSE [2] was 169 mg/dL and the “LACTATE DEHYDROGENASE” value [2] was 102.33 u/L. It also gave an LIPASE [2] of 8 u/L, a PHOSPHORUS [2] of 12.13 mg/dL and a POTASSIUM [2] of 6.59 MEQ/L. For the same compound, the SODIUM [2] was 147.43 MEQ/L, the “TOTAL BILIRUBIN” value [2] was 0.2 mg/dL and the “TOTAL PROTEIN” value [2] was 5.63 G/DL. The “URIC ACID” value [2] was 1.63 mg/dL, the “ABSOLUTE BASOPHIL” value [3] was 0 CELLS/uL and the “ABSOLUTE EOSINOPHIL” value [3] was 50.67 CELLS/uL. The “ABSOLUTE LYMPHOCYTE” value [3] was 11758.67 CELLS/uL, the “ABSOLUTE MONOCYTE” value [3] was 266.67 CELLS/uL and the “ABSOLUTE SEGMENTED NEUTROPHIL” value [3] was 857.33 CELLS/uL. The BASOPHIL [3] was 0%, the EOSINOPHIL [3] was 0.33% and the “ERYTHROCYTE COUNT” value [3] was 5.31 x10E6/uL. For the same compound, the HEMATOCRIT [3] was 32.77%, the HEMOGLOBIN [3] was 12.3 G/DL and the “LEUKOCYTE COUNT” value [3] was 12.93 x10E3/uL. For the same compound, the LYMPHOCYTE [3] was 91.33%, the “MEAN CORPUSCULAR HEMOGLOBIN” value [3] was 23.2 pg and the “MEAN CORPUSCULAR HEMOGLOBIN CONCENTRATION” value [3] was 37.53 G/DL. The “MEAN CORPUSCULAR VOLUME” value [3] was 61.7 fL, the MONOCYTE [3] was 2% and the NEUTROPHIL [3] was 6.33%. The “NUCLEATED RED BLOOD CELLS” value [3] was 0 /100WBC, the “PLATELET COUNT” value [3] was 1463.67 x10E3/uL and the “ALANINE AMINOTRANSFERASE” value [3] was 24.33 u/L. The ALBUMIN [3] was 3.73 G/DL, the “ALKALINE PHOSPHATASE” value [3] was 327.67 u/L and the “ASPARTATE AMINOTRANSFERASE” value [3] was 90.67 u/L. For the same compound, the “BLOOD UREA NITROGEN” value [3] was 16 mg/dL, the “CARBON DIOXIDE” value [3] was 24 mmol/L and the CHLORIDE [3] was 104 MEQ/L. For the same compound, the CHOLESTEROL [3] was 76.33 mg/dL, the “CREATINE PHOSPHOKINASE” value [3] was 376.67 u/L and the CREATININE [3] was 0.16 mg/dL. The GLUCOSE [3] was 151.67 mg/dL, the “LACTATE DEHYDROGENASE” value [3] was 543.33 u/L and the LIPASE [3] was 8.33 u/L. For the same compound, the PHOSPHORUS [3] was 12 mg/dL, the POTASSIUM [3] was 6.59 MEQ/L and the SODIUM [3] was 145.13 MEQ/L. For the same compound, the “TOTAL BILIRUBIN” value [3] was 0.3 mg/dL, the “TOTAL PROTEIN” value [3] was 5.2 G/DL and the “URIC ACID” value [3] was 1.63 mg/dL. For the same compound, the “ABSOLUTE BASOPHIL” value [4] was 0 CELLS/uL, the “ABSOLUTE EOSINOPHIL” value [4] was 0 CELLS/uL and the “ABSOLUTE LYMPHOCYTE” value [4] was 11990.67 CELLS/uL. The “ABSOLUTE MONOCYTE” value [4] was 262 CELLS/uL, the “ABSOLUTE SEGMENTED NEUTROPHIL” value [4] was 914 CELLS/uL and the BASOPHIL [4] was 0%. The EOSINOPHIL [4] was 0%, the “ERYTHROCYTE COUNT” value [4] was 5.81 x10E6/uL and the HEMATOCRIT [4] was 36.07%. For the same compound, the HEMOGLOBIN [4] was 13.33 G/DL, the “LEUKOCYTE COUNT” value [4] was 13.17 x10E3/uL and the LYMPHOCYTE [4] was 91%. The “MEAN CORPUSCULAR HEMOGLOBIN” value [4] was 22.97 pg, the “MEAN CORPUSCULAR HEMOGLOBIN CONCENTRATION” value [4] was 36.97 G/DL and the “MEAN CORPUSCULAR VOLUME” value [4] was 62.1 fL. The MONOCYTE [4] was 2%, the NEUTROPHIL [4] was 7% and the “NUCLEATED RED BLOOD CELLS” value [4] was 0 /100WBC. For the same compound, the “PLATELET COUNT” value [4] was 1293.33 x10E3/uL, the “ALANINE AMINOTRANSFERASE” value [4] was 31 u/L and the ALBUMIN [4] was 3.6 G/DL. The “ALKALINE PHOSPHATASE” value [4] was 266.33 u/L, the “ASPARTATE AMINOTRANSFERASE” value [4] was 72 u/L and the “BLOOD UREA NITROGEN” value [4] was 14.67 mg/dL. The “CARBON DIOXIDE” value [4] was 26.33 mmol/L, the CHLORIDE [4] was 105.67 MEQ/L and the CHOLESTEROL [4] was 83 mg/dL. The “CREATINE PHOSPHOKINASE” value [4] was 133 u/L, the CREATININE [4] was 0.23 mg/dL and the GLUCOSE [4] was 156 mg/dL. The “LACTATE DEHYDROGENASE” value [4] was 67.67 u/L, the LIPASE [4] was 8.67 u/L and the PHOSPHORUS [4] was 12.23 mg/dL. The POTASSIUM [4] was 6.11 MEQ/L, the SODIUM [4] was 145.9 MEQ/L and the “TOTAL BILIRUBIN” value [4] was 0.1 mg/dL. The “TOTAL PROTEIN” value [4] was 5.63 G/DL and the “URIC ACID” value [4] was 2 mg/dL.
